# Measurements: publication PMC11859031, “Assessment of the In Vitro Biological Activities of Schiff Base-Synthesized Copper Oxide Nanoparticles as an Anti-Diabetic, Anti-Alzheimer, and Anti-Cancer Agent” (Pharmaceutics, 2025)
# What was measured:
# [1] = ABTS radical scavenging; conditions: mean ± SE, n = 3
# Experimental: The procedure for the 2,2'-azinobis-(3-ethylbenzothiazoline-6-sulfonic acid) (ABTS) […]
# solution (7 mM) and potassium persulfate solution (2.4 mM). The working solution was prepared by mixing the two stock solutions in equal quantities and allowing them to react at room temperature in a dark place for 14 hours. The solution was then diluted by mixing 1 mL of ABTS solution with 60 mL of methanol to obtain an absorbance of 0.706 ± 0.01 units at 734 nm using a spectrophotometer. Fresh ABTS solution was prepared for each assay. The tested samples (at each concentration) were allowed to react with 1 mL of the ABTS solution, and the absorbance was taken at 734 nm after 7 minutes using a spectrophotometer. […]
# [2] = NO radical scavenging; conditions: mean ± SE, n = 3
# Experimental: The in vitro biological applications of the SB and SB-CuO-NPs, including antioxidant, scavenging, anti-diabetic, anti-Alzheimer, anti-arthritic, anti-inflammatory, cytotoxic effects, and enzyme inhibition, were assessed using methods described in the literature (See Supplementary Materials).
# During the current study, the free radical scavenging capacity of SB-CuO-NPs, SB, and ascorbic acid (positive control) was evaluated using the DPPH, ABTS, and NO radical methods. The scavenging activity is used to predict antioxidant efficacy, a mechanism in which antioxidants inhibit lipid oxidation. The lower IC50 value indicates a stronger ability of the SB-CuO-NPs to act as radical scavengers, whereas the higher IC50 value indicates a lower scavenging activity. […] The lower the IC50 value, the greater the antioxidant activity.
# [3] = Iron reducing power (IRP); conditions: samples at 100 µg/mL; mean ± SE, n = 3
# Experimental: ammonium molybdate. Methanol (80%) was used in place of the sample for the blank. The tubes were sealed and incubated in a boiling water bath for 90 minutes.
# After cooling to room temperature, the absorbance was measured at 695 nm against the blank. […] was used at the same concentrations as a standard. The antioxidant capacity was expressed as mg gallic acid equivalent per gram weight.
# The iron reducing power was determined as µg/mL using the method proposed by Oyaizu (1986). In brief, 1ml of the tested sample (at each concentration) was combined with 1mL of 200mM sodium phosphate buffer (pH 6.6) and 1mL of 1% potassium ferricyanide. […] The absorbance was measured at 700nm against a blank prepared without the sample. […] A high absorbance at 700nm indicates a higher reducing power in the reaction mixture.
# (§1) The 1,1-Diphenyl-2-picryl-hydrazyl (DPPH) radical scavenging activities were evaluated using the method described by Rahman et al. An antioxidant substance capable of donating a hydrogen atom to a solution containing DPPH- can reduce the stable free radical, causing the solution to change color from violet to pale yellow.
# The remaining DPPH- radical was quantified by measuring the intensity of a light-purple colored DPPH methanol solution in the visible range at 518 nm using a spectroscopic method. […]
# [4] = DPPH radical scavenging; conditions: mean ± SE, n = 3
# Experimental: as §1
# The remaining DPPH- radical was quantified by measuring the intensity of a light-purple colored DPPH methanol solution in the visible range at 518 nm using a spectroscopic method. Two mill iliters of a DPPH solution (100 µ M) in ethanol were mixed with 2 mL of the sample (at each concentration). The reaction mixture for each concentration was thoroughly vortexed and then incubated in the dark at room temperature for 30 minutes. The absorbance was then measured spectrophotometrically at 518 nm against a blank (ethanol). For the control, 2 mL of ethanol was added instead of the sample and run simultaneously with the test.
# Ascorbic acid was used at the same concentrations as a positive control. P ercent […]
# inhibition of the DPPH free radical was calculated. […]
# [5] = Total antioxidant capacity (TAC), phosphomolybdenum method; conditions: samples at 100 µg/mL; mean ± SE, n = 3
# Experimental: 1. Preparation of SB-CuO-NPs
# The copper oxide nanoparticles (CuO-NPs) were biosynthesized using a concentrated anhydrous copper sulfate solution (1 mM) as a metal precursor based […]
# dissolved in 100 ml of deionized water to form a 0.1 M concentration. The Schiff base (SB) was mixed with the metal solution in a ratio of 4:1. The SB-CuO-NPs was monitored by a color change. They were dried at 80 °C after centrifuging the colloidal solution at 4000 rpm for 15 min.
# 2. Characterization of the SB-CuO-NPs
# The spectra of the SB-CuO-NPs were characterized using a Shimadzu UV-VIS recording spectrophotometer UV-240 after diluting the samples (10-fold) with deionized water at λ 200 - 800 nm. Their surface zeta potentials were measured using the laser zeta meter (Malvern Zetasizer 2000, Malvern, Worcestershire, UK) following […]
# Moreover, their average hydrodynamic sizes were determined using the laser diffraction method with multiple scattering techniques employing dynamic light scattering (DLS) (Malvern Zetasizer Nano ZS, Malvern Instruments Ltd., Malvern, United Kingdom) (Murdock et al., 2008). […]
# All biological activities were assessed in the prepared samples at equal concentrations (100 µg/mL). […]
# After cooling to room temperature, the absorbance was measured at 695 nm against the blank. […] The antioxidant capacity was expressed as mg gallic acid equivalent per gram weight. […]
# [6] = system: Bcl-2 in BJ-1 cells; experiment: Bcl-2 ELISA in treated BJ-1 cells; assay type: cell-based, human; conditions: BJ-1 cells treated at the IC50 value, mean ± SE, n = 3
# Experimental: (§2) Following the treatment of HepG-2, Caco-2, A549, and BJ-1 cells with the SB-CuO-NPs at their respective IC50 values, as illustrated in Figure 9 and detailed in Table 5, an assessment of the activities of the caspase-3 and Bcl-2 enzymes was conducted in the treated cells. […] This mechanism ultimately triggers apoptosis. Additionally, the increased activity of caspase-3 results in a decrease in the expression of cyclin D1 and CDK-2 mRNA, thereby promoting the arrest of the G1 phase of the cell cycle. Othman et al. further noted that the biosynthesized M-NPs facilitate apoptosis by inhibiting the expression of the PI3K/AKT and Ras/Raf/ERK protein signaling pathways.
# (§3) Invitrogen Corporation, following the manufacturer's instructions.
# [7] = system: caspase-3 in BJ-1 cells; experiment: Caspase-3 ELISA in treated BJ-1 cells; assay type: cell-based, human; conditions: BJ-1 cells treated at the IC50 value, mean ± SE, n = 3
# Experimental: as §2, §3
# [8] = system: human hepatocellular carcinoma (HepG-2) cell line; experiment: MTT cytotoxicity, HepG-2
# [9] = system: caspase-3 in A549 cells; experiment: Caspase-3 ELISA in treated A549 cells; assay type: cell-based, human; conditions: A549 cells treated at the IC50 value, mean ± SE, n = 3
# Experimental: as §2, §3
# [10] = system: human lung cancer (A549) cell line; experiment: MTT cytotoxicity, A549
# [11] = system: human colon cancer (Caco-2) cell line; experiment: MTT cytotoxicity, Caco-2
# [12] = system: Bcl-2 in A549 cells; experiment: Bcl-2 ELISA in treated A549 cells; assay type: cell-based, human; conditions: A549 cells treated at the IC50 value, mean ± SE, n = 3
# Experimental: as §2, §3
# [13] = system: Bcl-2 in HepG-2 cells; experiment: Bcl-2 ELISA in treated HepG-2 cells; assay type: cell-based, human; conditions: HepG-2 cells treated at the IC50 value, mean ± SE, n = 3
# Experimental: as §2, §3
# [14] = system: normal human fibroblast (BJ-1) cell line; experiment: MTT cytotoxicity, BJ-1; conditions: Homo sapiens, Fibroblast, 48 h, read-out: Median Inhibitory Concentration (IC50) BJ-1
# [15] = MTT cytotoxicity, BJ-1; conditions: human, BJ-1 normal fibroblast cells
# [16] = system: Bcl-2 in Caco-2 cells; experiment: Bcl-2 ELISA in treated Caco-2 cells; assay type: cell-based, human; conditions: Caco-2 cells treated at the IC50 value, mean ± SE, n = 3
# Experimental: as §2, §3
# [17] = system: caspase-3 in Caco-2 cells; experiment: Caspase-3 ELISA in treated Caco-2 cells; assay type: cell-based, human; conditions: Caco-2 cells treated at the IC50 value, mean ± SE, n = 3
# Experimental: as §2, §3
# [18] = system: caspase-3 in HepG-2 cells; experiment: Caspase-3 ELISA in treated HepG-2 cells; assay type: cell-based, human; conditions: HepG-2 cells treated at the IC50 value, mean ± SE, n = 3
# Experimental: as §2, §3
# [19] = molecular target: T1, 5-LOX enzyme (human recombinant) (Homo sapiens, UniProt P09917); experiment: 5-Lipoxygenase inhibition assay; assay type: biochemical; conditions: at 100 µg/mL; mean ± SE, n = 3; read-out: 5-LOX Inhib. (%)
# T1 construct: purchased Sigma-Aldrich 437996
# T1 sequence (P09917 1-674): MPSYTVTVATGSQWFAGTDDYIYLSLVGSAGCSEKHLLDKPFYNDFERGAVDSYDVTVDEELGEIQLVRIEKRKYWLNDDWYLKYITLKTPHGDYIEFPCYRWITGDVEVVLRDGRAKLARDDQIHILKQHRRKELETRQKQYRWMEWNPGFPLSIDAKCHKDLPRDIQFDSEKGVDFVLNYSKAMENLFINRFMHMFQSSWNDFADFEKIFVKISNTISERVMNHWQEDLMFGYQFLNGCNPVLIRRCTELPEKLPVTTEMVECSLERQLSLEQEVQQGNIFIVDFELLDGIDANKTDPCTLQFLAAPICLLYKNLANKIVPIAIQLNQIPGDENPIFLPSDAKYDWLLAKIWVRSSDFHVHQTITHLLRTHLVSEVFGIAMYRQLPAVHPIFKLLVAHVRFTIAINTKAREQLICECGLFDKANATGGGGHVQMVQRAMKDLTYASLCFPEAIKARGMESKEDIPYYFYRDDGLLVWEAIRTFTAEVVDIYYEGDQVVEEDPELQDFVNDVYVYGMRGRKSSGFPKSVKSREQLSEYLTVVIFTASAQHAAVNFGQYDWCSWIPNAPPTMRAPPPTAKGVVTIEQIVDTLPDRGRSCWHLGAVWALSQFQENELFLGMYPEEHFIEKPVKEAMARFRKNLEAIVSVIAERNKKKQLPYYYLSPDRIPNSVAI
smiles,measurement,setting,value
"O=C1O[C@H]([C@@H](O)CO)C(O)=C1O [Ascorbic Acid, reference compound]",Scavenging activity ABTS Inhib. (%),[1]; at 100 µg/mL,65.43 ± 0.12%
same,Scavenging activity ABTS IC50,[1],3.99 ± 0.04 µg/mL
same,Scavenging activity NO Inhib. (%),[2]; at 100 µg/mL,53.93 ± 0.12%
same,Scavenging activity NO IC50,[2],5.24 ± 0.02 µg/mL
same,Antioxidant activity IRP,[3],66.00 ± 0.13 µg/mL
same,Scavenging activity DPPH Inhib. (%),[4]; at 100 µg/mL,61.68 ± 0.12%
same,Scavenging activity DPPH IC50,[4],4.50 ± 0.03 µg/mL
same,Antioxidant activity TAC,[5],83.75 ± 0.13 mg gallic acid/g
"COc1cccc2c1C(=O)c1c(O)c3c(c(O)c1C2=O)C[C@@](O)(C(=O)CO)C[C@@H]3O[C@H]1C[C@H](N)[C@H](O)[C@H](C)O1 [Doxorubicin, reference compound]",Bcl-2,[6],2.72 ± 0.01 ng/mL
same,Caspase-3,[7],200.43 ± 0.08 pg/mL
same,viability at 6.25 µg/mL,[8]; HepG2,74.4%
same,viability at 12.5 µg/mL,[8]; HepG2,59%
same,viability at 25 µg/mL,[8]; HepG2,34.3%
same,viability at 50 µg/mL,[8]; HepG2,18.1%
same,viability at 100 µg/mL,[8]; HepG2,9.17%
same,IC50,"[8]; HepG2, 48 h, read-out: Median Inhibitory Concentration (IC50) HepG-2",15.5 ± 1.98 µg/mL
same,Caspase-3,[9],247.96 ± 0.08 pg/mL
same,viability at 6.25 µg/mL,[10]; A549,77.4%
same,viability at 12.5 µg/mL,[10]; A549,51%
same,viability at 25 µg/mL,[10]; A549,24.3%
same,viability at 50 µg/mL,[10]; A549,12.1%
same,viability at 100 µg/mL,[10]; A549,5.17%
same,IC50,"[10]; A549, 48 h, read-out: Median Inhibitory Concentration (IC50) A549",14.4 ± 1.12 µg/mL
same,viability at 6.25 µg/mL,[11]; Caco-2,70.2%
same,viability at 12.5 µg/mL,[11]; Caco-2,35.2%
same,viability at 25 µg/mL,[11]; Caco-2,5.64%
same,viability at 50 µg/mL,[11]; Caco-2,4.48%
same,viability at 100 µg/mL,[11]; Caco-2,1.3%
same,IC50,"[11]; Caco-2, 48 h, read-out: Median Inhibitory Concentration (IC50) Caco-2",11.1 ± 1.09 µg/mL
same,Bcl-2,[12],4.51 ± 0.01 ng/mL
same,Bcl-2,[13],4.00 ± 0.02 ng/mL
same,IC50,[14],22 ± 1.51 µg/mL
same,"viability at 48 h, 6.25 μg/mL",[15],87.4%
same,"viability at 48 h, 12.5 μg/mL",[15],68%
same,"viability at 48 h, 25 μg/mL",[15],42.3%
same,"viability at 48 h, 50 μg/mL",[15],20.1%
same,"viability at 48 h, 100 μg/mL",[15],13.2%
same,Bcl-2,[16],2.04 ± 0.01 ng/mL
same,Caspase-3,[17],265.13 ± 0.12 pg/mL
same,Caspase-3,[18],306.04 ± 1.23 pg/mL
"CC(c1cc2ccccc2s1)N(O)C(N)=O (centres unmarked) [Zileuton, reference compound]",inhibition at 100 µg/mL,[19],46.99 ± 0.13%
